# Measurements published in PubChem BioAssay (NCI).
#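 Protocol summary: plate cells (96-well), add compound at 5 concentrations, incubate 48 h, interpolate endpoints linearly. The concentration for 50% growth inhibition is given as GI50. Definition used: TGI = concentration required for complete inhibition of growth.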
# Test system: SK-MEL-2 melanoma
# Assay: inhibition of tumour cell growth, NCI panel, 48 h
Structure (SMILES),TGI [µM],GI50 [µM]
CC(C)(C)NC(NC(C)(C)C)=C(/C=C(/Cl)[N+](=O)[O-])[N+](=O)[O-],> 100,
O=C(Cc1ccc(/C=C/C(=O)c2ncc[nH]2)cc1)Nc1cc(F)c(F)c(F)c1,15.7,5.15

# Test system: SK-MEL-28 melanoma
# Assay: inhibition of tumour cell growth, NCI panel, 48 h
Structure (SMILES),TGI [µM],GI50 [µM]
CN(CC(=O)O)c1ncc2c(n1)-c1ccccc1SC2,> 100,
CC(=O)Nc1ccc(C(=O)NN2C(=O)CSC2c2ccc([N+](=O)[O-])cc2)cc1 (configuration not stated),> 100,
CC(=O)c1ccc(NCc2cc(O)ccc2O)cc1,> 100,
CN(C(=O)C1=CCC2(CC1)OCCO2)c1ccccc1OS(=O)(=O)C(F)(F)F,> 100,
CC(C)(C)NC(NC(C)(C)C)=C(/C=C(/Cl)[N+](=O)[O-])[N+](=O)[O-],> 100,
O=C(Cc1ccc(/C=C/C(=O)c2ncc[nH]2)cc1)Nc1cc(F)c(F)c(F)c1,8.09,4.15

# Test system: SK-MEL-5 melanoma
# Assay: inhibition of tumour cell growth, NCI panel, 48 h
Structure (SMILES),TGI [µM],GI50 [µM]
CN(CC(=O)O)c1ncc2c(n1)-c1ccccc1SC2,> 100,
CC(=O)Nc1ccc(C(=O)NN2C(=O)CSC2c2ccc([N+](=O)[O-])cc2)cc1 (configuration not stated),> 100,
CC(=O)c1ccc(NCc2cc(O)ccc2O)cc1,57.2,
CN(C(=O)C1=CCC2(CC1)OCCO2)c1ccccc1OS(=O)(=O)C(F)(F)F,> 100,
CC(C)(C)NC(NC(C)(C)C)=C(/C=C(/Cl)[N+](=O)[O-])[N+](=O)[O-],> 100,
O=C(Cc1ccc(/C=C/C(=O)c2ncc[nH]2)cc1)Nc1cc(F)c(F)c(F)c1,8.19,4.18

# Test system: SK-OV-3 ovarian
# Assay: inhibition of tumour cell growth, NCI panel, 48 h
Structure (SMILES),TGI [µM],GI50 [µM]
CC(=O)Nc1ccc(C(=O)NN2C(=O)CSC2c2ccc([N+](=O)[O-])cc2)cc1 (configuration not stated),> 100,
CC(=O)c1ccc(NCc2cc(O)ccc2O)cc1,59.8,
CN(C(=O)C1=CCC2(CC1)OCCO2)c1ccccc1OS(=O)(=O)C(F)(F)F,> 100,
CC(C)(C)NC(NC(C)(C)C)=C(/C=C(/Cl)[N+](=O)[O-])[N+](=O)[O-],> 100,
O=C(Cc1ccc(/C=C/C(=O)c2ncc[nH]2)cc1)Nc1cc(F)c(F)c(F)c1,> 25,7.01

# Test system: SN12C renal
# Assay: inhibition of tumour cell growth, NCI panel, 48 h
Structure (SMILES),TGI [µM],GI50 [µM]
CN(CC(=O)O)c1ncc2c(n1)-c1ccccc1SC2,> 100,
CC(=O)Nc1ccc(C(=O)NN2C(=O)CSC2c2ccc([N+](=O)[O-])cc2)cc1 (configuration not stated),> 100,
CC(=O)c1ccc(NCc2cc(O)ccc2O)cc1,92.8,
CN(C(=O)C1=CCC2(CC1)OCCO2)c1ccccc1OS(=O)(=O)C(F)(F)F,> 100,
CC(C)(C)NC(NC(C)(C)C)=C(/C=C(/Cl)[N+](=O)[O-])[N+](=O)[O-],> 100,
O=C(Cc1ccc(/C=C/C(=O)c2ncc[nH]2)cc1)Nc1cc(F)c(F)c(F)c1,11.1,4.27

# Test system: SNB-19 CNS
# Assay: inhibition of tumour cell growth, NCI panel, 48 h
Structure (SMILES),TGI [µM],GI50 [µM]
CN(CC(=O)O)c1ncc2c(n1)-c1ccccc1SC2,> 100,
CC(=O)Nc1ccc(C(=O)NN2C(=O)CSC2c2ccc([N+](=O)[O-])cc2)cc1 (configuration not stated),> 100,
CC(=O)c1ccc(NCc2cc(O)ccc2O)cc1,> 100,
CN(C(=O)C1=CCC2(CC1)OCCO2)c1ccccc1OS(=O)(=O)C(F)(F)F,> 100,
CC(C)(C)NC(NC(C)(C)C)=C(/C=C(/Cl)[N+](=O)[O-])[N+](=O)[O-],> 100,
O=C(Cc1ccc(/C=C/C(=O)c2ncc[nH]2)cc1)Nc1cc(F)c(F)c(F)c1,9.93,4.07

# Test system: SNB-75 CNS
# Assay: inhibition of tumour cell growth, NCI panel, 48 h
Structure (SMILES),TGI [µM],GI50 [µM]
CN(CC(=O)O)c1ncc2c(n1)-c1ccccc1SC2,> 100,
CC(=O)Nc1ccc(C(=O)NN2C(=O)CSC2c2ccc([N+](=O)[O-])cc2)cc1 (configuration not stated),> 100,
CC(=O)c1ccc(NCc2cc(O)ccc2O)cc1,28,
CN(C(=O)C1=CCC2(CC1)OCCO2)c1ccccc1OS(=O)(=O)C(F)(F)F,79.5,
CC(C)(C)NC(NC(C)(C)C)=C(/C=C(/Cl)[N+](=O)[O-])[N+](=O)[O-],87.2,
O=C(Cc1ccc(/C=C/C(=O)c2ncc[nH]2)cc1)Nc1cc(F)c(F)c(F)c1,> 25,1.98

# Test system: SR leukemia
# Assay: inhibition of tumour cell growth, NCI panel, 48 h
row,Structure (SMILES),TGI [µM]
1,CN(CC(=O)O)c1ncc2c(n1)-c1ccccc1SC2,> 100
2,CN(C(=O)C1=CCC2(CC1)OCCO2)c1ccccc1OS(=O)(=O)C(F)(F)F,> 100
3,CC(C)(C)NC(NC(C)(C)C)=C(/C=C(/Cl)[N+](=O)[O-])[N+](=O)[O-],> 100
